Assay results taken from PMC9927415, “Tyrosine Kinase Inhibitors Display Potent Activity against Cryptosporidium parvum” (Microbiology Spectrum, 2022).
Read-outs that look alike come from different tables or passages of the source.

How the values were obtained:
Assay in all cases: KINOMEscan competitive binding
RIPK2 = target: T1, RIPK2 (Homo sapiens, UniProt O43353); details: n=1, read-out: Percent inhibition, RIPK2
T1 construct: purchased DiscoverX (KINOMEscan)

CSNK1G1 = target: T2, CSNK1G1 (Homo sapiens, UniProt Q9HCP0)
T2 construct: purchased DiscoverX (KINOMEscan)
T2 sequence (Q9HCP0 whole entry): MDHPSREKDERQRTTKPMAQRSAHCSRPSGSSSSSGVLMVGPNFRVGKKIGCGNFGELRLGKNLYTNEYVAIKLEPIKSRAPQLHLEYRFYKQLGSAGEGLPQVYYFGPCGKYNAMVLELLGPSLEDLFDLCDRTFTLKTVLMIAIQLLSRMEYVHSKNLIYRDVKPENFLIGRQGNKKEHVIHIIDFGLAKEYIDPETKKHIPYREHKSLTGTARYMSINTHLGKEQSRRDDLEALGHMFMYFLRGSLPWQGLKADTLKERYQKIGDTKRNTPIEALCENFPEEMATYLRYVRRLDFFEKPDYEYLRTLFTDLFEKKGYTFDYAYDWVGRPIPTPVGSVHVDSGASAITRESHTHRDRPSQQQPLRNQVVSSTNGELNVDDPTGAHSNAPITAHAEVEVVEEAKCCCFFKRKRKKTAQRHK
From the text: (§1) The kinases were expressed as fusions to T7 bacteriophage. This is a sensitive, competitive binding assay where test compounds were used to displace immobilized ATP-site binding probe ligands from kinases of interest. The amount of kinase that remained bound to the immobilized probe ligands on the solid support was quantified. Percentage inhibition data were was plotted on kinome trees using the web-based tool KinMap (http://www.kinhub.org/kinmap) ([60]).

AAK1 = target: T3, AAK1 (Homo sapiens, UniProt Q2M2I8); details: 10 µM, n=1; kinase AAK1; read-out: Percent inhibition AAK1
T3 construct: purchased DiscoverX (KINOMEscan)
From the text: as §1

KIT = target: T4, KIT (Homo sapiens, UniProt P10721)
T4 construct: purchased DiscoverX (KINOMEscan)
T4 sequence (P10721 26-976): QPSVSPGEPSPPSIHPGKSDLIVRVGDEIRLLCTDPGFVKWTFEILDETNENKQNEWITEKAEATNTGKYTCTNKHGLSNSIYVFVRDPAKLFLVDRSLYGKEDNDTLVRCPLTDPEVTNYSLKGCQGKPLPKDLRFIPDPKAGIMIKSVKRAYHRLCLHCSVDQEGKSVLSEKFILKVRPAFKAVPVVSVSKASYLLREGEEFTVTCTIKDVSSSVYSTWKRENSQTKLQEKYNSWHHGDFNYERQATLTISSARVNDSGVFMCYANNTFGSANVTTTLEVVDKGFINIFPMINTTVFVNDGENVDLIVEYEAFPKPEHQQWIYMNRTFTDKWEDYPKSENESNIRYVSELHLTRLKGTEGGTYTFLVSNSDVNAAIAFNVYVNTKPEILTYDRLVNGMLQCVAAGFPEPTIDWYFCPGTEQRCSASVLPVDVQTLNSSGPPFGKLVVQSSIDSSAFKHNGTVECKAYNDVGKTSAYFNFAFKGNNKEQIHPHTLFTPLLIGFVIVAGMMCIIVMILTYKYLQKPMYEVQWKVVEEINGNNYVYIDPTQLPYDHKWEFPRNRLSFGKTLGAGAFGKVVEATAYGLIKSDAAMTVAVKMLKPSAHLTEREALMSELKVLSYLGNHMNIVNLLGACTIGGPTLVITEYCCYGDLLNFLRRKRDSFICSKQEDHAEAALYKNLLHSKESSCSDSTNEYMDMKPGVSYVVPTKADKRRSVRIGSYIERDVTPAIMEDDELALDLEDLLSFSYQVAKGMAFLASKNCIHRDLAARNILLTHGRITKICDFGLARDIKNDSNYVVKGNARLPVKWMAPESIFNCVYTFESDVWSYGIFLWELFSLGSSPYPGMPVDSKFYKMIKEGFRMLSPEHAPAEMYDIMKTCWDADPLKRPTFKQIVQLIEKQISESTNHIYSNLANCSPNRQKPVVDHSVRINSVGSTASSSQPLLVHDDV
From the text: as §1

CLK2 = target: T5, CLK2 (Homo sapiens, UniProt P49760)
T5 construct: purchased DiscoverX (KINOMEscan)
T5 sequence (P49760 whole entry): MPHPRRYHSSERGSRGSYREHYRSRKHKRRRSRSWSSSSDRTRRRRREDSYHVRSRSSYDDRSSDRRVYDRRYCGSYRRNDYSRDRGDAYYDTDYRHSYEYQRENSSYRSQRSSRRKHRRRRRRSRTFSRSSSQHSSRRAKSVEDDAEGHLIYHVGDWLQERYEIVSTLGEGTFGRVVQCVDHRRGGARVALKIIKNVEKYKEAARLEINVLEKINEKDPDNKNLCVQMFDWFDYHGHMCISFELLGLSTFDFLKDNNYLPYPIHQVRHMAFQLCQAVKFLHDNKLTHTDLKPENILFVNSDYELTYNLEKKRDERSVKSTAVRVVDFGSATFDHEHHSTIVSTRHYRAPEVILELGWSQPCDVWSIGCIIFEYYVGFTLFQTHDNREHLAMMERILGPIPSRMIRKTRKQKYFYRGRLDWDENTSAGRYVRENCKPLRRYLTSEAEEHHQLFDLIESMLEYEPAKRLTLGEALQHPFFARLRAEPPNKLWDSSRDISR
From the text: as §1

CLK1 = target: T6, CLK1 (Homo sapiens, UniProt P49759)
T6 construct: purchased DiscoverX (KINOMEscan)
From the text: as §1

CDK5 = target: T7, CDK5 (Homo sapiens, UniProt Q00535)
T7 construct: purchased DiscoverX (KINOMEscan)
From the text: as §1

CSNK1E = target: T8, CSNK1E (Homo sapiens, UniProt P49674)
T8 construct: purchased DiscoverX (KINOMEscan)
From the text: as §1

PLK1 = target: T9, PLK1 (Homo sapiens, UniProt P53350); details: n=1, read-out: Percent inhibition, PLK1
T9 construct: purchased DiscoverX (KINOMEscan)
T9 sequence (P53350 whole entry): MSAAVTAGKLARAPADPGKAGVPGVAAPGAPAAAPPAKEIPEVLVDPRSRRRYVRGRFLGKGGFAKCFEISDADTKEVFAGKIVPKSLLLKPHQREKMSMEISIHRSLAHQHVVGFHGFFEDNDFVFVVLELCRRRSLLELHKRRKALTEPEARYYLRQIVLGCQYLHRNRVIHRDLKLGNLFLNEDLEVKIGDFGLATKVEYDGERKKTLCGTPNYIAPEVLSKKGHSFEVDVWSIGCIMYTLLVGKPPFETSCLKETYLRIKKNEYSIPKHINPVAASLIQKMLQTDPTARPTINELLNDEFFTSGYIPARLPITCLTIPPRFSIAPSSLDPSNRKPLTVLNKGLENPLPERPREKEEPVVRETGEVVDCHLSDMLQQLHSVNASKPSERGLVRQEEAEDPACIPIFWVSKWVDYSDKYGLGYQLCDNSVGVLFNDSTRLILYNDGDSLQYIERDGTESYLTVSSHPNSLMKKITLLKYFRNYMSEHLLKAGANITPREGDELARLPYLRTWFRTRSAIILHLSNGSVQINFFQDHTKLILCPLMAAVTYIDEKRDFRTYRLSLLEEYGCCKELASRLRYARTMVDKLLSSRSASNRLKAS
From the text: as §1

EGFR = target: T10, EGFR (Homo sapiens, UniProt P00533)
T10 construct: purchased DiscoverX (KINOMEscan)
From the text: as §1

LYN = target: T11, LYN (Homo sapiens, UniProt P07948)
T11 construct: purchased DiscoverX (KINOMEscan)
T11 sequence (P07948 whole entry): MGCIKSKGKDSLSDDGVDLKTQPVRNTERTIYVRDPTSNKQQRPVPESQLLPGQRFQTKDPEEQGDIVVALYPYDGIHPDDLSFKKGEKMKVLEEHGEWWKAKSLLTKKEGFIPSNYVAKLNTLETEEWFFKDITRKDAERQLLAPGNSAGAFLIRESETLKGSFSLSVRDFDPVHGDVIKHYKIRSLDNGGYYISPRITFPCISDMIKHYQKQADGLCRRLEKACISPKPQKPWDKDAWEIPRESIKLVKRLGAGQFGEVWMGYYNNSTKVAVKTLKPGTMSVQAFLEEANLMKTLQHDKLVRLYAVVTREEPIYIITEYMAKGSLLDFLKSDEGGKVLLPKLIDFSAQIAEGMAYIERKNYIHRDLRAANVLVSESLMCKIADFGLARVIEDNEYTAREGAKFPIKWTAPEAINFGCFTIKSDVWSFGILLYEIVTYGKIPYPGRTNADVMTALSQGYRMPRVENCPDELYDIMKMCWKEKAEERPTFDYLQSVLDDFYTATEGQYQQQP
From the text: as §1

BIKE = target: T12, BIKE (Homo sapiens, UniProt Q9NSY1); details: 10 µM, n=1; kinase BIKE; read-out: Percent inhibition BIKE
T12 construct: purchased DiscoverX (KINOMEscan)
T12 sequence (Q9NSY1 whole entry): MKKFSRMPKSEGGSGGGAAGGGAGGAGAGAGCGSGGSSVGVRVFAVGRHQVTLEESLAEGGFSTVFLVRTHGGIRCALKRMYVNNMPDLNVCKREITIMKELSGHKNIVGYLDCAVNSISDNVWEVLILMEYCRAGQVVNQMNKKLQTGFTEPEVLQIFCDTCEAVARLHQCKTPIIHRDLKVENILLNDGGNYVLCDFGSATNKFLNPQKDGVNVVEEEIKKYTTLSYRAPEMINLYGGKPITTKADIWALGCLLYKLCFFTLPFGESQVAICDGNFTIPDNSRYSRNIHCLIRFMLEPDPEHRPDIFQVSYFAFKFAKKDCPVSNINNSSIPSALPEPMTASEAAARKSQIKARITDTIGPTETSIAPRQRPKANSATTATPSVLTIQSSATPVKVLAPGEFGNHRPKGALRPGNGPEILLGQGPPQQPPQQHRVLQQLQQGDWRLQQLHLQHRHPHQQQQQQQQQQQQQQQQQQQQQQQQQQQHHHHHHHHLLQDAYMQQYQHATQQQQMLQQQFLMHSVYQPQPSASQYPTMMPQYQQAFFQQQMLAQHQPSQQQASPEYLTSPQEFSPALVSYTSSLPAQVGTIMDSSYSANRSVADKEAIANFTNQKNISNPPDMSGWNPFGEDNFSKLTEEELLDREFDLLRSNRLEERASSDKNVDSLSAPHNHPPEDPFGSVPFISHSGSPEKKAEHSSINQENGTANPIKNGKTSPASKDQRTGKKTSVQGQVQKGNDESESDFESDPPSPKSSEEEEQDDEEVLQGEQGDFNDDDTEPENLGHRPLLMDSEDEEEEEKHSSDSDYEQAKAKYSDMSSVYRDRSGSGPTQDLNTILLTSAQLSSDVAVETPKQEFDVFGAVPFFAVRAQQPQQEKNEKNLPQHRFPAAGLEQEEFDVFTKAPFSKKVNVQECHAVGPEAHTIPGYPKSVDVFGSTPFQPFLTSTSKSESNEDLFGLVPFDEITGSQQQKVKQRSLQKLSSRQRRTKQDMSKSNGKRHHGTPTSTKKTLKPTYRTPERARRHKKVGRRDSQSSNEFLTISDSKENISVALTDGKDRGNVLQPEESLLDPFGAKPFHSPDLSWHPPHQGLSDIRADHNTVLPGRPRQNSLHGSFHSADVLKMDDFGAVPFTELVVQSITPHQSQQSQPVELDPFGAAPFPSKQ
From the text: as §1

MERTK = target: T13, MERTK (Homo sapiens, UniProt Q12866); details: 10 µM, n=1; kinase MERTK; read-out: Percent inhibition MERTK
T13 construct: purchased DiscoverX (KINOMEscan)
T13 sequence (Q12866 21-999): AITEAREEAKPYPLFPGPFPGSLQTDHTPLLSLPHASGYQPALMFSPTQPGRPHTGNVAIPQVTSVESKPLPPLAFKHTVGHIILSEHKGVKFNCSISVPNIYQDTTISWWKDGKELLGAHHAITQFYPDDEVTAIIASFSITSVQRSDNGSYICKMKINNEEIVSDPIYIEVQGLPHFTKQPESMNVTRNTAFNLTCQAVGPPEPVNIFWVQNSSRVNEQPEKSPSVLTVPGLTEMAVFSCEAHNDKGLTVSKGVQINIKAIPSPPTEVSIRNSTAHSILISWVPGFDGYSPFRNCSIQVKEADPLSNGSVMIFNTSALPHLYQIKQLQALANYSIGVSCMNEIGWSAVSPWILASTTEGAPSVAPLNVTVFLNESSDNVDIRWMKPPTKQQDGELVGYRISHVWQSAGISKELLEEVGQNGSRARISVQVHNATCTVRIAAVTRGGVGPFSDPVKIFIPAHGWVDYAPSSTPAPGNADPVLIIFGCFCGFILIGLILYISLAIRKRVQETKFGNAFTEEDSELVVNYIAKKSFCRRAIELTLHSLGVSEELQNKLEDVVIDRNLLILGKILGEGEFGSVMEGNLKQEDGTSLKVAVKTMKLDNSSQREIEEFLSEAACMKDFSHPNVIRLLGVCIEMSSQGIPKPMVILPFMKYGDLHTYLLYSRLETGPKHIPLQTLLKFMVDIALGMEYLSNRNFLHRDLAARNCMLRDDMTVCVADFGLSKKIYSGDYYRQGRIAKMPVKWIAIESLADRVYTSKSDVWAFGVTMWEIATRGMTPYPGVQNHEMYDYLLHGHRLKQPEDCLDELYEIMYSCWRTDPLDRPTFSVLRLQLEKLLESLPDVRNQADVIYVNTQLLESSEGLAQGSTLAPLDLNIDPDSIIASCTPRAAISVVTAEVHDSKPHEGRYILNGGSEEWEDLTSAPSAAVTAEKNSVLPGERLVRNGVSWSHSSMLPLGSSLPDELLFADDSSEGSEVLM
From the text: as §1

KDR (VEGFR2) = target: T14, KDR (VEGFR2) (Homo sapiens, UniProt P35968); details: for inhibition at 10 µM: KINOMEscan, n=1, read-out: Percent inhibition, VEGFR2
T14 construct: purchased DiscoverX (KINOMEscan)
From the text: as §1

CSNK2A1 = target: T15, CSNK2A1 (Homo sapiens, UniProt P68400); details: 10 µM, n=1; kinase CSNK2A1; read-out: Percent inhibition CSNK2A1
T15 construct: purchased DiscoverX (KINOMEscan)
From the text: as §1

JAK1(JH2) = target: T16, JAK1(JH2) (Homo sapiens, UniProt P23458)
T16 construct: JAK1(JH2); purchased DiscoverX (KINOMEscan)
T16 sequence (P23458 583-855 limits assumed): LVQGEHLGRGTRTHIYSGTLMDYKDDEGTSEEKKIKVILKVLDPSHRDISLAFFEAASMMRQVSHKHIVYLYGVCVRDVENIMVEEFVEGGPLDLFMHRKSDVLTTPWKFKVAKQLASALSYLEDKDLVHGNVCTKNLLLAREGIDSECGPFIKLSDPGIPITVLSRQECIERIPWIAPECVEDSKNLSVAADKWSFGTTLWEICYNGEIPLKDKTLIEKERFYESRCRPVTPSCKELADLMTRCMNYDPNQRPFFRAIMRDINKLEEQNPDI
From the text: as §1

PKN2 = target: T17, PKN2 (Homo sapiens, UniProt Q16513); details: n=1, read-out: Percent inhibition, PKN2
T17 construct: purchased DiscoverX (KINOMEscan)

[1] = 10 µM, n=1, kinase CSNK1G1, read-out: Percent inhibition CSNK1G1
[2] = 10 µM, n=1, kinase KIT, read-out: Percent inhibition KIT
[3] = 10 µM, n=1, kinase CLK2, read-out: Percent inhibition CLK2
[4] = 10 µM, n=1, kinase CLK1, read-out: Percent inhibition CLK1
[5] = 10 µM, n=1, kinase CDK5, read-out: Percent inhibition CDK5
[6] = 10 µM, n=1, kinase CSNK1E, read-out: Percent inhibition CSNK1E
[7] = 10 µM, n=1, kinase EGFR, read-out: Percent inhibition EGFR
[8] = 10 µM, n=1, kinase LYN, read-out: Percent inhibition LYN
[9] = 10 µM, n=1, kinase JAK1(Kin.Dom.1), read-out: Percent inhibition JAK1(Kin.Dom.1)
[10] = 10 μM, n = 1, read-out: percent inhibition CDK5
[11] = 10 μM, n = 1, read-out: percent inhibition KIT

T1 sequence (O43353 whole entry): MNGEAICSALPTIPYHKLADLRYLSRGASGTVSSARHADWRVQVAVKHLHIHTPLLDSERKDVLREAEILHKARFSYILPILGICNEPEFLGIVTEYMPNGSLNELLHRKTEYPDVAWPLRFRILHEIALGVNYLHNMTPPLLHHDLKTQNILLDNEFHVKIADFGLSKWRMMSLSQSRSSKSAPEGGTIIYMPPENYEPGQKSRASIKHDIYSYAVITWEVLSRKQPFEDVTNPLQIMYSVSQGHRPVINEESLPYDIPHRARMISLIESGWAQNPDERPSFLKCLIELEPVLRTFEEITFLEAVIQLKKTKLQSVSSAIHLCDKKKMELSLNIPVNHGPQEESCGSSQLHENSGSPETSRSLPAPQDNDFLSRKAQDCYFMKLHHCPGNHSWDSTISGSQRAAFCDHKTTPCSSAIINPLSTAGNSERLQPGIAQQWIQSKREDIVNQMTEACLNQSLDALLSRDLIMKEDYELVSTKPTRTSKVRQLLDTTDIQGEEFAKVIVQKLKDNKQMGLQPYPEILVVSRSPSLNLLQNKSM

SMILES | inhibition at 10 µM (RIPK2) | inhibition at 10 µM (CSNK1G1; [1]) | inhibition at 10 µM (AAK1) | inhibition at 10 µM (KIT; [2]) | inhibition at 10 µM (CLK2; [3]) | inhibition at 10 µM (CLK1; [4]) | inhibition at 10 µM (CDK5; [5]) | inhibition at 10 µM (CSNK1E; [6]) | inhibition at 10 µM (PLK1) | inhibition at 10 µM (EGFR; [7]) | inhibition at 10 µM (LYN; [8]) | inhibition at 10 µM (BIKE) | inhibition at 10 µM (MERTK) | inhibition at 10 µM (KDR (VEGFR2)) | inhibition at 10 µM (CSNK2A1) | inhibition at 10 µM (JAK1(JH2); [9]) | inhibition at 10 µM (PKN2) | also measured
Cc1ccc(O)cc1Nc1ccnc(Nc2cccc(C(N)=O)c2)n1 [Compound 3] | 100% | 82.5% | 0% | 100% | 91.5% | 0% | 0% | 100% | 0% | 99% | 99.9% | 0% | 0% | 81.5% | 0% | 0% | 0% | –
Cc1ccc(O)cc1N(C)c1ccnc(Nc2cccc(S(N)(=O)=O)c2)n1 [Compound 4] | 100% | 0% | 0% | 100% | 84.5% | 0% | 0% | 100% | 0% | 95.8% | 99.8% | 0% | 77.6% | 83.7% | 0% | 0% | 0% | –
CN1CCN(c2ccc(Nc3nccc(-c4cnn5ncccc45)n3)cc2C#N)CC1 [Compound 1] | 90.6% | 100% | 99.9% | 100% | 100% | 99.9% | 99.5% | 100% | 0% | 0% | 0% | 99.1% | 98.7% | 100% | 100% | 100% | 67.8% | inhibition at 10 µM (CDK5; [10]): > 99%
Clc1ccc(Nc2ncc(-c3ccccc3)s2)cc1 [Compound 10] | 0% | 0% | 0% | 99% | 0% | 0% | 0% | 0% | 0% | 0% | 100% | 0% | 0% | 0% | 0% | 0% | 0% | inhibition at 10 µM (KIT; [11]): > 99%; inhibition at 10 µM (LYN; 10 μM, n = 1, read-out: percent inhibition LYN): > 99%; inhibition of KDR (VEGFR2), in words (KDR (VEGFR2); kinome profiling, 10 μM): relatively weak inhibition
Nc1ncc2c(-c3ccncc3)c[nH]c2n1 [Compound 11] | 0% | 99.3% | 79.4% | 99.3% | 99.9% | 99.2% | 0% | 100% | 0% | 0% | 0% | 0% | 0% | 0% | 0% | 99% | 0% | inhibition at 10 µM (CSNK1G1; 10 μM, n = 1, read-out: percent inhibition CSNK1G1): ≥ 99%; inhibition at 10 µM (KIT; [11]): ≥ 99%; inhibition at 10 µM (CLK2; 10 μM, n = 1, read-out: percent inhibition CLK2): ≥ 99%; inhibition at 10 µM (CLK1; 10 μM, n = 1, read-out: percent inhibition CLK1): ≥ 99%; inhibition at 10 µM (CSNK1E; 10 μM, n = 1, read-out: percent inhibition CSNK1E): ≥ 99%; inhibition at 10 µM (JAK1(JH2); 10 μM, n = 1, read-out: percent inhibition JAK1(JH2)): ≥ 99%
Fc1cccc(COc2ccc(Nc3ncnc4c3CN(CCN3CCOCC3)CC4)cc2Cl)c1 [Compound 6] | 0% | 0% | 0% | 0% | 0% | 0% | 0% | 0% | 0% | 99.9% | 0% | 0% | 0% | 0% | 0% | 0% | 71.4% | inhibition at 10 µM (EGFR; 10 μM, n = 1, read-out: percent inhibition EGFR): > 99%
COc1ccc(Nc2nccc(-c3cnn4ncccc34)n2)cc1 [Compound 2] | 0% | 75.9% | 99.7% | 100% | 99.9% | 99.8% | 99.8% | 100% | 97.2% | 0% | 0% | 96.5% | 65.9% | 92.9% | 82% | 95.5% | 0% | inhibition at 10 µM (CDK5; [10]): > 99%
C[C@@H](Oc1cc(-c2cnc3ccccn23)sc1C(N)=O)c1ccccc1Cl [Compound 8] | 0% | 0% | 97.5% | 0% | 0% | 92.7% | 0% | 71.7% | – | 0% | 0% | 99.4% | 87.6% | 0% | 94.6% | 87.8% | 79.3% | –
COc1cc(Nc2nccc(-c3sc(N)nc3-c3cccc(NC(=O)c4c(F)cccc4F)c3)n2)cc(OC)c1OC [Compound 7] | 100% | 0% | 92.8% | 100% | 0% | 0% | 0% | 99.9% | 0% | 100% | 100% | 0% | 99.6% | 89.5% | 0% | 0% | 0% | –
